Assay results reported in patent US9018248B2, “Fatty acid derivatives of catechins and methods of their use” (Genesis Group Inc., priority 2010, dated 2015).

Test: TBARS formation in cooked pork model system
Settings: 80 μmol/kg meat, stored at 4° C.
Experimental: Fresh ground pork (40 g) was mixed with deionized water (10 g) in a Mason jar. Samples and reference antioxidant compound (BHA) dissolved in ethanol were added to meat at a level of 80 μmol/kg. A control without any antioxidant was also prepared. The content was thoroughly mixed and cooked at 80° C. in a thermostated water bath for 40 min with intermittent stirring. The cooked meat was cooled to room temperature and homogenized with a Polytron PT 3000 (Brinkmann Instruments, Rexdale, ON) homogenizer. The homogenate was then transferred into plastic bags and stored at 4° C. for 14 days. […].
TBARS values were determined as described by Shahidi and Hong (Shahidi, F. and Hong, C. Evaluation of malonaldehyde as a marker of oxidative rancidity in meat products. J. Food Biochem. 15, 97-105, 1991).
A series of TMP (1,1,3,3-tetramethoxypropane) standard solutions at difference concentrations was mixed with thiobarbituric acid (TBA) in screw-capped tubes and heated in a boiling water bath for 45 min. After cooling on ice, the absorbance was recorded at 532 nm and a standard curve was constructed (absorbance versus concentration). For TBARS in the cooked meat model system, 2 g of meat were mixed with 5 ml of trichloroacetic acid (TCA, 10% w/v) in a centrifuge tube, followed by addition of 5 ml of TBA reagent. The mixture was centrifuged at 3000×g for 10 min and the supernatant was filtered. The filtrate was heated in a boiling water bath for 45 min and absorbance was measured at 532 nm after cooling to room temperature. TBARS values in meat samples were obtained using the standard curve as μmol malonaldehyde equivalents/kg of meat. Antioxidant activity was calculated as percentage inhibition of TBARS formation by test compounds.

Structure (SMILES): COc1ccc(O)c(C(C)(C)C)c1 [BHA, reference compound]
- Inhibition of TBARS formation in cooked pork: 83.3 ± 2.34^ab %
